Each structure is given as a SMILES string. Activity calls are given as the source filed them. The rule behind the calls is not given here.

Among the data in ChEMBL document CHEMBL1143132, “Synthesis and protective effects of coumarin derivatives against oxidative stress induced by doxorubicin” (2008) are Activity values, retold here.

Assay [1] concerns MCF7. Description: Protective effect against doxorubicin-induced oxidative stress in human MCF7 cells assessed as reduction of ROS level at 25 uM. The class given is functional, cell-based.
For assay [2], the system named is MCF7. Description: Antioxidant activity in human MCF7 cells assessed as reduction of H2O2 production at 100 uM. The class given is functional, cell-based.
Assay [3] relates to MCF7. Briefly: Cytotoxicity against human MCF7 cells at 100 uM. The assay is classed as functional.

As for `Cc1cc(=O)oc2c(O)c(O)ccc12`, the result in the assay with MCF7 [1] and in the assay with MCF7 [2] was Active.
As to `Cc1c(Cl)c(=O)oc2c(O)c(O)ccc12`, the outcome with MCF7 [2] was Active.
Compound `CCCCCCCCCCCCSCc1cc(=O)oc2c(OC(C)=O)c(OC(C)=O)ccc12` gave an Activity with MCF7 [3] of 70%. For the same compound, in the assay with MCF7 [2], the result was Active.
